{"source": "patent US20080014289A1", "about": "“Vehicle and method for treating and preventing acne vulgaris and exfoliating the skin hypohalous acids” (priority 2006, published 2008)", "key": {"[1]": {"conditions": "cited from earlier work"}, "[2]": {"system": "cells", "conditions": "equimolar basis, compared with HOCl; cited from earlier work"}, "[3]": {"system": "acne vulgaris", "assay": "Preclinical trial of washing solution, anti-acne activity", "type": "in vivo", "description": "The concentration of HOCl in the washing solution may be higher than this value depending on where the washing solution is to be applied, e.g. when treating a patient's back for trunk acne, the concentration of HOCl in the washing solution may be as high as 60 ppm for maximum effect in the short term because the thickness of skin on this section of a body is around 3 mm (as compared to a skin thickness of 0.1 mm at the chin section of the face).\nTreatment is divided into two stages, treatment period and maintenance period. User should conduct the treatment daily during treatment period until no acne break out; then can switch to maintenance period.\n• 1. Wash the face regularly with soap completely removing oil and grime from the surface of the skin. Concentrate on areas of the skin prone to suffering from acne, such as forehead, chin, jawline, around the lips and nose. • 2. Prepare the washing solution as indicated in Examples 1A-1I. • 3. Submerge your face fully into the washing solution, in order to extend time for skin contacting with the solution, moving the head as much as practical while submerged. […]"}, "[4]": {"system": "bacteria", "conditions": "hot tubs, spas and swimming pools; cited from earlier work"}, "[5]": {"conditions": "cited from earlier work", "remark": "listed apart in the source"}}, "note": "Read-outs that look alike come from different tables or passages of the source."}
{"molecule": "OBr", "note": "[HOBr, hypobromous acid]", "values": [{"measurement": "% of bromine as HOBr", "setting": "[1]; water pH 6.0", "result": 100, "unit": "%"}, {"measurement": "% of bromine as HOBr", "setting": "[1]; water pH 6.5", "result": 99.4, "unit": "%"}, {"measurement": "% of bromine as HOBr", "setting": "[1]; water pH 7.0", "result": 98, "unit": "%"}, {"measurement": "% of bromine as HOBr", "setting": "[1]; water pH 7.5", "result": 94.0, "unit": "%"}, {"measurement": "% of bromine as HOBr", "setting": "[1]; water pH 8.0", "result": 83.0, "unit": "%"}, {"measurement": "% of bromine as HOBr", "setting": "[1]; water pH 8.5", "result": 57.0, "unit": "%"}, {"measurement": "efficiency as a lytic agent, factor relative to HOCl", "setting": "[2]", "result": 10}, {"measurement": "anti-acne activity compared with hypochlorous acid", "setting": "[3]", "result": "slightly less effective than hypochlorous acid"}]}
{"molecule": "OBr", "note": "[OBr^−, hypobromite]", "values": [{"measurement": "% bromine as OBr−", "setting": "[1]; water pH 6.0", "result": 0.0, "unit": "%"}, {"measurement": "% bromine as OBr−", "setting": "[1]; water pH 6.5", "result": 0.6, "unit": "%"}, {"measurement": "% bromine as OBr−", "setting": "[1]; water pH 7.0", "result": 2, "unit": "%"}, {"measurement": "% bromine as OBr−", "setting": "[1]; water pH 7.5", "result": 6.0, "unit": "%"}, {"measurement": "% bromine as OBr−", "setting": "[1]; water pH 8.0", "result": 17.0, "unit": "%"}, {"measurement": "% bromine as OBr−", "setting": "[1]; water pH 8.5", "result": 43.0, "unit": "%"}]}
{"molecule": "OCl", "note": "[HOCl, hypochlorous acid]", "values": [{"measurement": "time needed to completely destroy a given concentration of bacteria", "setting": "[4]", "result": 30, "unit": "s"}, {"measurement": "FAC existing as active HOCl", "setting": "[5]; pH above 7.5", "result": "< 50", "unit": "%"}, {"measurement": "% of Chlorine as HOCl", "setting": "[5]; water pH 6.5", "result": 90, "unit": "%"}, {"measurement": "% of Chlorine as HOCl", "setting": "[5]; water pH 7.0", "result": 73, "unit": "%"}, {"measurement": "% of Chlorine as HOCl", "setting": "[5]; water pH 7.2", "result": 66, "unit": "%"}, {"measurement": "share of FAC in the active HOCl form", "setting": "[5]; water pH 7.5", "result": "~50", "unit": "%"}, {"measurement": "% of Chlorine as HOCl", "setting": "[5]; water pH 7.6", "result": 45, "unit": "%"}, {"measurement": "% of Chlorine as HOCl", "setting": "[5]; water pH 8.0", "result": 21, "unit": "%"}, {"measurement": "% of Chlorine as HOCl", "setting": "[5]; water pH 8.5", "result": 10, "unit": "%"}]}
{"molecule": "Hypochlorite ion [OCl^−]", "values": [{"measurement": "% chlorine as OCl−", "setting": "[5]; water pH 6.5", "result": 10, "unit": "%"}, {"measurement": "% chlorine as OCl−", "setting": "[5]; water pH 7.0", "result": 27, "unit": "%"}, {"measurement": "% chlorine as OCl−", "setting": "[5]; water pH 7.2", "result": 34, "unit": "%"}, {"measurement": "% chlorine as OCl−", "setting": "[5]; water pH 7.6", "result": 55, "unit": "%"}, {"measurement": "% chlorine as OCl−", "setting": "[5]; water pH 8.0", "result": 79, "unit": "%"}, {"measurement": "% chlorine as OCl−", "setting": "[5]; water pH 8.5", "result": 90, "unit": "%"}]}
